The values that follow come from article PMC6017342, “Discovery of Oxime Ethers as Hepatitis B Virus (HBV) Inhibitors by Docking, Screening and In Vitro Investigation” (Molecules : A Journal of Synthetic Chemistry and Natural …, 2018).

One series concerns HepG2.2.15 cells. Nature of the series: Cytotoxicity on HepG2.2.15 cells (MTT assay, 9 days). In kind it is cell-based, human. To be noted: HepG 2.2.15 cell. The method, then: (§1) HepG2.2.15 (clonal cells derived from human hepatoma cell line G2) cells were provided by the Chinese Academy of Medical Sciences (P.R. China) and maintained in minimal essential medium (MEM) supplemented with 10% fetal bovine serum and 380 μg/mL of G418, 50 ug/mL of kanamycin, and 0.03% L-glutamine at 37 °C in a 5% CO2 atmosphere with 100% humidity.
HepG2.2.15 cells were seeded at a density of 1 × 10^5 cells/ml ([…]) in 96-well plates and maintained at 37 °C for 24 h prior to extract addition, followed by treatment with various concentrations of drugs. Lamivudine (3TC) was served as the positive control. Cells were treated with drug-containing fresh medium every 3 d for up to 9 d in a time-dependent experiment. Medium was taken at the 9th day of the treatment and stored at −20 °C until analysis. The IC50 and selected index (SI) of each compound were calculated, respectively.
Logarithmically growing cells were seeded in 96-well culture plates at a density of 1 × 10^5 cells/mL ([…]). They were cultured for 24 h and then treated with various concentrations of drugs. Optical density (OD) values were read at 450 nm after 9 days and the percentage of cell death was calculated; the cells were treated with drug-containing fresh medium every 3 d for up to 9 d. After drug treatment, the cytotoxicity was measured using the MTT assay.

For series [1], the system named is secretion of HBsAg in HepG2.2.15 cells. Nature of the series: microbe, parasite or virus in culture. In kind it is cell-based, Hepatitis B virus. To be noted: for IC50 / HBsAg IC50: - = inhibition ratio less than 50% in the test concentration range.
Description: (§2) The anti-HBV activities of the compounds were expressed as the concentration of compound that achieved 50% inhibition (IC50) to the secretion of HBsAg and HBeAg. […] The cytotoxicity of compounds was expressed as the concentration of compound required to kill 50% (TC50) of the HepG2.2.15 cells.
as §1
(§3) HepG2.2.15 cells were seeded at a density of 1 × 10^5 cells/ml ([…]) in 96-well plates and maintained at 37 °C for 24 h prior to extract addition, followed by treatment with various concentrations of drugs. […] Cells were treated with drug-containing fresh medium every 3 d for up to 9 d in a time-dependent experiment. Medium was taken at the 9th day of the treatment and stored at −20 °C until analysis. The IC50 and selected index (SI) of each compound were calculated, respectively.
(§4) The levels of HBV surface antigen (HBsAg) and HBV e antigen (HBeAg) in the supernatant of the HepG2.2.15 cell were simultaneously detected using enzyme-linked immunosorbent assay (ELISA) kits (Rongsheng Biotechnology Co. Ltd., Shanghai, China) according to the manufacturer’s instructions.The synthesized derivatives were expressed as the concentration of compound that achieved 50% inhibition (IC50) to the secretion of HBsAg and HBeAg. The selectivity index (SI) was determined as the ratio of CC50 to IC50, which is a major pharmaceutical parameter of estimates possible for future clinical application.

Series [2] has as its system secretion of HBeAg in HepG2.2.15 cells. Nature of the series: Inhibition of HBeAg secretion in HepG2.2.15 cells (ELISA). Particulars: 9 days. In kind it is cell-based, Hepatitis B virus.
Description: as §2, §1, §3, §4
For orientation: ELISA stands for enzyme-linked immunosorbent assay.

The mark [3] stands for this setting: HepG2.2.15 cells, 9 days, ELISA, read-out: HBsAg IC50.
Setting [4] is: ELISA, - = inhibition ratio less than 50% in the test concentration range.
Where [5] appears, read: HepG2.2.15 cells, 9 days, ELISA.
Setting [6] is: Hepatitis B virus, HepG2.2.15, 216 h, read-out: HBsAg IC50, HepG2.2.15 cells, 9 days, ELISA.
The mark [7] stands for this setting: Hepatitis B virus, HepG2.2.15, 216 h, ELISA, - = inhibition ratio less than 50% in the test concentration range.

Where “and” joins values, the source holds several entries; their conditions need not be identical. Equal values may be shown once. Read-outs that look alike come from different tables or passages of the source.

Turning to “(E)-4-(4-Methoxyphenyl)-4-[(benzyloxy)imino]-N-phenylbutanamide [Compound 5b-2]”, the “TC50 (50% cytotoxicity concentration)” value with HepG2.2.15 cells is >1500 µM. For the same compound, the “HBsAg SI (selectivity index = TC50/IC50)” value in series [1] (HepG2.2.15 cells, 9 days) is listed as >14.82. The half-maximal inhibitory concentration (IC50) is 101 µM in series [1] (setting [3]) and 192 µM in series [2] (setting [4]). Also, in series [2], the “HBeAg SI (selectivity index = TC50/IC50)” value is listed as >7.83.

Regarding “Ethyl (E)-4-(4-chlorophenyl)-4-[(benzyloxy)imino]butanoate [Compound 3c-2]”, in the series on HepG2.2.15 cells, the “TC50 (50% cytotoxicity concentration)” value was determined as 127.10 µM. For the same compound, the “HBsAg SI (selectivity index = TC50/IC50)” value in series [1] (HepG2.2.15 cells, 9 days) amounted to 1.34. In addition, the IC50 in series [1] (setting [3]) was found to be 94.7 µM; in series [2] (setting [4]) it was 93.9 µM. For the same compound, in series [2], the “HBeAg SI (selectivity index = TC50/IC50)” value stood at 1.34.

Regarding “Furan-2-ylmethyl (E)-4-(4-chlorophenyl)-4-[(benzyloxy)imino]butanoate [Compound 4c-2]”, in the series on HepG2.2.15 cells, the “TC50 (50% cytotoxicity concentration)” value was >1500 µM. Moreover, the IC50 was > 293 µM in series [1] (setting [3]) and > 359 µM in series [2] (setting [4]).

As to `CCOC(=O)CC/C(=N\OC)c1ccc(OC)cc1` [Compound 3b-1, Ethyl (E)-4-(4-methoxyphenyl)-4-[(methoxy)imino]butanoate], the “TC50 (50% cytotoxicity concentration)” value with HepG2.2.15 cells was 1383.74 µM. The “HBsAg IC50” value in series [1] (setting [5]) is reported as “inhibitory activity could be neglected”. The IC50 in series [1] (setting [6]) was > 293 µM; in series [2] (setting [7]), > 359 µM.

`O=C(CC/C(=N\OCc1ccccc1)c1ccc(Cl)cc1)Nc1ccccc1` [Compound 5c-2, (E)-4-(4-Chlorophenyl)-4-[(benzyloxy)imino]-N-phenylbutanamide]: the melting point was in the range of 116 to 117.9 °C.

`CO/N=C(\CCC(=O)OCc1ccco1)c1ccc(OC)cc1` [Compound 4b-1, Furan-2-ylmethyl (E)-4-(4-methoxyphenyl)-4-[(methoxy)imino]butanoate]: the “TC50 (50% cytotoxicity concentration)” value with HepG2.2.15 cells was 347.55 µM. Further, the “HBsAg SI (selectivity index = TC50/IC50)” value in series [1] (HepG2.2.15 cells, 9 days) worked out at 2.72. In addition, the IC50 in series [1] (setting [6]) is 128 µM; in series [2] (setting [7]), > 359 µM.

With `CO/N=C(\CCC(=O)Nc1ccccc1)c1ccc(OC)cc1` [Compound 5b-1, (E)-4-(4-Methoxyphenyl)-4-[(methoxy)imino]-N-phenylbutanamide], the “TC50 (50% cytotoxicity concentration)” value in the series with HepG2.2.15 cells amounted to 473.25 µM. Moreover, the “HBsAg SI (selectivity index = TC50/IC50)” value in series [1] (HepG2.2.15 cells, 9 days) is given as 2.28. Moreover, the IC50 was 208 µM in series [1] (setting [6]) and > 359 µM in series [2] (setting [7]).

Consider “Ethyl (E)-4-(4-methylbenzoyl)-4-[(benzyloxy)imino]butanoate [Compound 3a-2]”, for which, in the series on HepG2.2.15 cells, the “TC50 (50% cytotoxicity concentration)” value is >1500 µM. In series [1] (setting [5]), the “HBsAg IC50” value is “non”. For the same compound, the IC50 in series [1] (setting [3]) was > 293 µM; in series [2] (setting [4]) it was > 359 µM.

For the compound `CCOC(=O)CC/C(=N\OC)C(=O)c1ccc(C)cc1` [Compound 3a-1, Ethyl (E)-4-(4-methylbenzoyl)-4-[(methoxy)imino]butanoate], the “TC50 (50% cytotoxicity concentration)” value in the series on HepG2.2.15 cells is >1500 µM. Besides, the “HBsAg SI (selectivity index = TC50/IC50)” value in series [1] (HepG2.2.15 cells, 9 days) is given as >5.12. For the same compound, the IC50 in series [1] (setting [6]) was 293 µM; in series [2] (setting [7]), > 359 µM.

For the compound “Ethyl (E)-4-(4-methoxyphenyl)-4-[(benzyloxy)imino]butanoate [Compound 3b-2]”, the “TC50 (50% cytotoxicity concentration)” value with HepG2.2.15 cells turned out to be 429.88 µM. Moreover, the “HBsAg SI (selectivity index = TC50/IC50)” value in series [1] (HepG2.2.15 cells, 9 days) is recorded as 4.95. Further, the figures for the IC50 in series [1] (setting [3]) and in series [2] (setting [4]) were 86.9 µM and > 359 µM, respectively.

Regarding `Nc1ccn([C@@H]2CS[C@H](CO)O2)c(=O)n1` [Compound 3TC, Lamivudine, reference compound], in the series with HepG2.2.15 cells, the “TC50 (50% cytotoxicity concentration)” value was determined as 517.40 µM. Further, the IC50 in series [1] (setting [6]) was determined as 291 µM.

For `CO/N=C(\CCC(=O)OCc1ccco1)c1ccc(Cl)cc1` [Compound 4c-1, Furan-2-ylmethyl (E)-4-(4-chlorophenyl)-4-[(methoxy)imino]butanoate], the “TC50 (50% cytotoxicity concentration)” value in the series on HepG2.2.15 cells was >1500 µM. Also, the “HBsAg IC50” value in series [1] (setting [5]) is given as “non”. Also, the figures for the IC50 in series [1] (setting [6]) and in series [2] (setting [7]) were > 293 µM and > 359 µM, respectively.

Take `COc1ccc(/C(CCC(=O)OCc2ccco2)=N/OCc2ccccc2)cc1` [Compound 4b-2, Furan-2-ylmethyl (E)-4-(4-methoxyphenyl)-4-[(benzyloxy)imino]butanoate]: the “TC50 (50% cytotoxicity concentration)” value in the series with HepG2.2.15 cells worked out at 1153.49 µM. The “HBsAg SI (selectivity index = TC50/IC50)” value in series [1] (HepG2.2.15 cells, 9 days) came to 4.94. Further, the IC50 in series [1] (setting [6]) is 234 µM; in series [2] (setting [7]) it was > 359 µM.

On to “Furan-2-ylmethyl (E)-4-(4-methylbenzoyl)-4-[(benzyloxy)imino]butanoate [Compound 4a-2]”, for which, in the series with HepG2.2.15 cells, the “TC50 (50% cytotoxicity concentration)” value is >1500 µM. Besides, in series [1] (setting [5]), the “HBsAg IC50” value is listed as “non”. Moreover, the figures for the IC50 in series [1] (setting [3]) and in series [2] (setting [4]) were > 293 µM and > 359 µM, respectively.

As to `CCOC(=O)CC/C(=N\OC)c1ccc(Cl)cc1` [Compound 3c-1, Ethyl (E)-4-(4-chlorophenyl)-4-[(methoxy)imino]butanoate], the “TC50 (50% cytotoxicity concentration)” value with HepG2.2.15 cells was found to be 450.67 µM. In addition, the “HBsAg SI (selectivity index = TC50/IC50)” value in series [1] (HepG2.2.15 cells, 9 days) worked out at 2.00. The IC50 in series [1] (setting [6]) was 225 µM; in series [2] (setting [7]), > 359 µM.

For the compound `CO/N=C(\CCC(=O)Nc1ccccc1)c1ccc(Cl)cc1` [Compound 5c-1, (E)-4-(4-Chlorophenyl)-4-[(methoxy)imino]-N-phenylbutanamide], the “TC50 (50% cytotoxicity concentration)” value with HepG2.2.15 cells was 1138.45 µM and >1500 µM. Also, in series [1] (HepG2.2.15 cells, 9 days), the “HBsAg SI (selectivity index = TC50/IC50)” value was found to be 28.51. For the same compound, the “HBeAg SI (selectivity index = TC50/IC50)” value in series [2] is recorded as 4.63. In series [2] (setting [4]), the “HBeAg IC50” value is “non”. Moreover, the IC50 in series [2] (setting [7]) was determined as 246 µM.

For the compound “(E)-4-(4-Methylbenzoyl)-4-[(methoxy)imino]-N-phenylbutanamide [Compound 5a-1]”, in the series on HepG2.2.15 cells, the “TC50 (50% cytotoxicity concentration)” value is >1500 µM. Besides, the “HBsAg SI (selectivity index = TC50/IC50)” value in series [1] (HepG2.2.15 cells, 9 days) is listed as >20.02. Further, the IC50 amounted to 74.9 µM in series [1] (setting [3]) and 274 µM in series [2] (setting [4]). In addition, the “HBeAg SI (selectivity index = TC50/IC50)” value in series [2] was >5.48.

What is called IC50 is the concentration at which inhibition is half-maximal. The melting point is the temperature of the solid-liquid transition.
